In patent publication US20030119067A1, “PYK2 related products and methods” (Sugen, Inc., priority 1996, published 2003):

Key:
Type in all cases: cell-based, rat
PYK2 = experiment: Tyrosine phosphorylation of PYK2 in PC12 cells (immunoprecipitation, anti-phosphotyrosine immunoblot); conditions: PC12 cells, 37° C.
Src = Src kinase activity in PC12 cells; conditions: PC12 cells stimulated with LPA or bradykinin
Method: (§1) Sadoshima & Izumo, EMBO J. 15:775-787 (1996); Wan et al., Nature 380:541-544 (1996). The EGF-receptor and erbB2 were also implicated in MAP kinase activation induced by LPA and other agonists of G-protein coupled receptors. Daub et al., Nature 379:557-564 (1996). We have tested whether LPA and bradykinin can activate Src and the EGF receptor in PC12 cells.
(§2) PC12 cells were left untreated (−) or stimulated with LPA (2.5 mM) or bradykinin (1 mM) for 3 min at 37° C. Src was immunoprecipitated and immunoblotted with antibodies against Src, anti-pY416^src antibodies or antibodies against PYK2.

PYK2/Src complex = experiment: Association of PYK2 with activated Src in PC12 cells (co-immunoprecipitation); conditions: LPA 2.5 mM or bradykinin 1 mM, 3 min, 37° C.
Source text: We examined the possibility of association between the two protein tyrosine kinases PYK2 and Src in response to LPA or bradykinin stimulation. Lysates from stimulated or unstimulated cells were subjected to immunoprecipitation with antibodies against Src followed by immunoblotting with antibodies against PYK2, against Src or anti-pY416src antibodies that specifically recognize activated Src. Liu et al., Oncogene 8:1119-1126 (1993).
as §2

EGF receptor = experiment: Activation of EGF receptor in PC12 cells
Source text: as §1

Q: Which “tyrosine phosphorylation of PYK2” value (PYK2; LPA 2.5 mM or bradykinin 1 mM, 3 min) does the source give for lysophosphatidic acid [LPA] here?
A: rapid tyrosine phosphorylation of PYK2

Q: And the “increase in the phosphorylation state of PYK2 relative to unstimulated cells” value (PYK2; LPA 2.5 mM, bradykinin 1 mM 3 min, PMA 1 mM 10 min)?
A: 4 fold

Q: What about the “increase in Src kinase activity” value (Src) of the same substance?
A: approximately three to four

Q: What about the “complex formation of PYK2 with activated Src” value (PYK2/Src complex) of the same substance?
A: forms a complex with activated Src

Q: And the “activation of EGF receptor” value (EGF receptor)?
A: unable to detect
